Measurements taken from publication PMC10778198, “First-in-Human Dose-Escalation Study of the Novel Oral Depsipeptide Class I-Targeting HDAC Inhibitor Bocodepsin (OKI-179) in Patients with Advanced Solid Tumors” (Cancers, 2023).

System: patients with advanced solid tumors
Experiment: phase I dose escalation: safety, DLT, MTD, RP2D (CTCAE v. 5)
Format: in vivo
Details: 4:3
From the text: Subsequent dosing cohorts were enrolled using a standard 3 + 3 design.
If any patient in any cohort of three patients developed a DLT during cycle 1, an additional three patients were recruited to expand the cohort to up to six evaluable patients. If two or more patients in any expanded cohort developed a DLT, this dose was considered non-tolerated, and dose escalation was discontinued. The MTD was defined as the highest dose level for which no more than one of six patients experienced a DLT.
Patients were continuously evaluated for adverse events throughout the study using the Common Terminology Criteria of Adverse Events (CTCAE v. 5). The patients underwent a clinical history and physical examination, an ECOG PS, a complete blood count (CBCs), chemistry, coagulation studies, urinalysis, a serum pregnancy test (as applicable), a triplicate ECG, an ophthalmology examination, and baseline tumor assessment at screening. During cycle 1, weekly history and physical examination, CBC, chemistry, coagulation parameters, urinalysis, and triplicate ECGs were performed; in subsequent cycles, weekly labs were limited to a CBC. Repeat ophthalmology examinations were performed at cycle 3, day 1, and at the end of treatment. Repeat tumor assessment was performed every 2 cycles (6 weeks) in accordance with RECIST 1.1.

CC(C)[C@H](N)C(=O)SCC/C=C/[C@@H]1CC(=O)NCc2nc(cs2)C(=O)NC(C)(C)C(=O)N[C@@H](C(C)C)C(=O)O1 [OKI-179, Bocodepsin]
3 (38) n (%): TEAE: Decreased appetite (30 mg–210 mg (n = 8), G1)
4 (50) n (%): TEAE: Vomiting (30 mg–210 mg (n = 8), G1)
1 (13) n (%): TEAE: Back pain (30 mg–210 mg (n = 8), G1) | TEAE: Hypokalaemia (30 mg–210 mg (n = 8), G1) | TEAE: Nasal congestion (30 mg–210 mg (n = 8), G1) | TEAE: Weight decreased (30 mg–210 mg (n = 8), G1) | TEAE: Cough (30 mg–210 mg (n = 8), G2) | TEAE: Decreased appetite (30 mg–210 mg (n = 8), G2) | TEAE: Fatigue (30 mg–210 mg (n = 8), G2) | TEAE: Muscular weakness (30 mg–210 mg (n = 8), G2) | TEAE: Weight decreased (30 mg–210 mg (n = 8), G2) | TEAE: ECG QT prolonged (30 mg–210 mg (n = 8), G3) | TEAE: Fatigue (30 mg–210 mg (n = 8), G3)
2 (25) n (%): TEAE: Cough (30 mg–210 mg (n = 8), G1) | TEAE: Dyspnea (30 mg–210 mg (n = 8), G1) | TEAE: Fatigue (30 mg–210 mg (n = 8), G1) | TEAE: Headache (30 mg–210 mg (n = 8), G1) | TEAE: Pyrexia (30 mg–210 mg (n = 8), G1) | TEAE: Anemia (30 mg–210 mg (n = 8), G2) | TEAE: Anemia (30 mg–210 mg (n = 8), G3)
1 (33) n (%): TEAE: Fatigue (270 mg (n = 3), G1) | TEAE: Muscular weakness (270 mg (n = 3), G1) | TEAE: Nausea (270 mg (n = 3), G1) | TEAE: Platelet count decreased (270 mg (n = 3), G1)
0 n (%): TEAE: Anemia (30 mg–210 mg (n = 8), G1) | TEAE: ECG QT prolonged (30 mg–210 mg (n = 8), G1) | TEAE: Muscular weakness (30 mg–210 mg (n = 8), G1) | TEAE: Platelet count decreased (30 mg–210 mg (n = 8), G1) | TEAE: Proteinuria (30 mg–210 mg (n = 8), G1) | TEAE: Back pain (30 mg–210 mg (n = 8), G2) | TEAE: Diarrhea (30 mg–210 mg (n = 8), G2) | TEAE: Dyspnea (30 mg–210 mg (n = 8), G2) | TEAE: ECG QT prolonged (30 mg–210 mg (n = 8), G2) | TEAE: Headache (30 mg–210 mg (n = 8), G2) | TEAE: Hypokalaemia (30 mg–210 mg (n = 8), G2) | TEAE: Nausea (30 mg–210 mg (n = 8), G2) | TEAE: Platelet count decreased (30 mg–210 mg (n = 8), G2) | TEAE: Proteinuria (30 mg–210 mg (n = 8), G2) | TEAE: Pyrexia (30 mg–210 mg (n = 8), G2) | TEAE: Vomiting (30 mg–210 mg (n = 8), G2) | TEAE: Back pain (30 mg–210 mg (n = 8), G3) | TEAE: Cough (30 mg–210 mg (n = 8), G3) | TEAE: Decreased appetite (30 mg–210 mg (n = 8), G3) | TEAE: Diarrhea (30 mg–210 mg (n = 8), G3) | TEAE: Dyspnea (30 mg–210 mg (n = 8), G3) | TEAE: Headache (30 mg–210 mg (n = 8), G3) | TEAE: Hypokalaemia (30 mg–210 mg (n = 8), G3) | TEAE: Muscular weakness (30 mg–210 mg (n = 8), G3) | TEAE: Nausea (30 mg–210 mg (n = 8), G3) | TEAE: Platelet count decreased (30 mg–210 mg (n = 8), G3) | TEAE: Proteinuria (30 mg–210 mg (n = 8), G3) | TEAE: Pyrexia (30 mg–210 mg (n = 8), G3) | TEAE: Vomiting (30 mg–210 mg (n = 8), G3) | TEAE: Weight decreased (30 mg–210 mg (n = 8), G3) | TEAE: Anemia (270 mg (n = 3), G1) | TEAE: Back pain (270 mg (n = 3), G1) | TEAE: Cough (270 mg (n = 3), G1) | TEAE: Decreased appetite (270 mg (n = 3), G1) | TEAE: Diarrhea (270 mg (n = 3), G1) | TEAE: Dyspnea (270 mg (n = 3), G1) | TEAE: ECG QT prolonged (270 mg (n = 3), G1) | TEAE: Headache (270 mg (n = 3), G1) | TEAE: Hypokalaemia (270 mg (n = 3), G1) | TEAE: Proteinuria (270 mg (n = 3), G1) | TEAE: Pyrexia (270 mg (n = 3), G1) | TEAE: Vomiting (270 mg (n = 3), G1) | TEAE: Weight decreased (270 mg (n = 3), G1) | TEAE: Anemia (270 mg (n = 3), G2) | TEAE: Back pain (270 mg (n = 3), G2) | TEAE: Cough (270 mg (n = 3), G2) | TEAE: Decreased appetite (270 mg (n = 3), G2) | TEAE: Diarrhea (270 mg (n = 3), G2)
5 (63) n (%): TEAE: Diarrhea (30 mg–210 mg (n = 8), G1) | TEAE: Nausea (30 mg–210 mg (n = 8), G1)
